Test results taken from patent publication US8614203B2, “Methods for the treatment of a central nervous system injury via a tapered administration protocol” (Emory University, priority 2005, dated 2013).

Experiments:
[1] = tested on: BDNF; experiment: Example 3: Western blot of brain tissue, BDNF; assay type: in vivo, Sprague-Dawley rats; settings: TWI vs AWI vs VI, 3 weeks post-injury
Description: Male Sprague-Dawley rats received either medial frontal cortex injury or sham surgery. Injections were given 1 and 6 hours post-injury, and every 24 hours for 7 days. Treatment groups (n=8) encompassed injured (I) and sham (S) acute withdrawal (AW), tapered withdrawal (TW) and vehicle (V) treatments. TW injections were progressively halved over the final two treatments. Behavioral testing was conducted post-surgery, mid- and post-withdrawal. Activity boxes were used to investigate vertical movements and exploration: Sensory neglect and anxiety behaviors were also analyzed. Brain harvesting was performed at 8 days or 3 weeks post-injury. Perfused tissue sections were analyzed for lesion volume and immunohistochemical response. Fresh brain tissue was flash frozen in chilled 2-methyl butane, and then homogenized for Western blot analysis.

[2] = tested on: GFAP; assay type: in vivo; settings: acute withdrawal, lesion (AWL) vs VL; three weeks post-injury
Description: 60 male Sprague-Dawley rats weighing 290-310 g at the time of injury were used in this experiment. Food and water were provided ad libidum before and after surgery. Animals were handled and weighed daily from their arrival, seven days pre-surgery, to brain extraction three weeks post-surgery. Animals were handled in squads of 12, with n=10 per experimental condition. All animal procedures were approved by the Emory University Animal Care and Use Committee, Protocol #131-2002.
Isofluorane anesthesia was induced for four minutes and 45 seconds at 5% and maintained at 2.5%. Normal body temperature was maintained with a surgical heating pad placed beneath the sterile dressings. The scalp incision area was shaved and sterilized with iodine and isopropanol. A midline incision was made along the scalp and the fascia cleared to expose the surface of the skull. Medial, lateral, and dorsal stereotaxic coordinates were determined at bregma, and a 5-7 mm diameter bilateral craniotomy was performed mid-sagitally, 3 mm anterior to bregma. […]
All animals were decapitated following a lethal 1 mL injection of Nembutal at three weeks post-injury. […] Thionin-stained sections from 4.2-2.2 mm anterior to bregma were identified and analyzed for lesion area using Kodak ID software. Total brain area was determined by determined by normalizing to the volume of sham brain sections. […]

## CC(=O)[C@H]1CC[C@H]2[C@@H]3CCC4=CC(=O)CC[C@]4(C)[C@H]3CC[C@]12C [progesterone, pregn-4-ene-3,20-dione]
[1]
  BDNF expression: increased for TWI over AWI over VI at 3 weeks post-injury
[2]
  GFAP immunofluorescence luminosity (reactive astrocytes): upregulated in VL (A) animals over AWL (B) animals
